Patent US20220340597A1, “HEXAHYDRO-1H-PYRAZINO[1,2-A]PYRAZINE COMPOUNDS FOR THE TREATMENT OF AUTOIMMUNE DISEASE” (Hoffmann-La Roche Inc., priority 2019, published 2022)
Values after ≈ are worked out from the molar mass of the structure shown.

Experiments:
hERG channel = target: T1, hERG channel (Homo sapiens, UniProt Q12809); assay: hERG channel inhibition assay (patch-clamp, CHOhERG cells); assay type: cell-based; conditions: for IC50 / IC20: CHOhERG cells, whole-cell patch-clamp; for IC20: human, CHO cells stably expressing hERG (CHOhERG); for hERG IC20/TLR7 IC50 / hERG IC20/TLR8 IC50 / hERG IC20/TLR9 IC50: safety ratio
T1 construct: expressed in transfected cells; host or cells: CHO (Chinese hamster ovary), CHOhERG
T1 sequence (Q12809 whole entry): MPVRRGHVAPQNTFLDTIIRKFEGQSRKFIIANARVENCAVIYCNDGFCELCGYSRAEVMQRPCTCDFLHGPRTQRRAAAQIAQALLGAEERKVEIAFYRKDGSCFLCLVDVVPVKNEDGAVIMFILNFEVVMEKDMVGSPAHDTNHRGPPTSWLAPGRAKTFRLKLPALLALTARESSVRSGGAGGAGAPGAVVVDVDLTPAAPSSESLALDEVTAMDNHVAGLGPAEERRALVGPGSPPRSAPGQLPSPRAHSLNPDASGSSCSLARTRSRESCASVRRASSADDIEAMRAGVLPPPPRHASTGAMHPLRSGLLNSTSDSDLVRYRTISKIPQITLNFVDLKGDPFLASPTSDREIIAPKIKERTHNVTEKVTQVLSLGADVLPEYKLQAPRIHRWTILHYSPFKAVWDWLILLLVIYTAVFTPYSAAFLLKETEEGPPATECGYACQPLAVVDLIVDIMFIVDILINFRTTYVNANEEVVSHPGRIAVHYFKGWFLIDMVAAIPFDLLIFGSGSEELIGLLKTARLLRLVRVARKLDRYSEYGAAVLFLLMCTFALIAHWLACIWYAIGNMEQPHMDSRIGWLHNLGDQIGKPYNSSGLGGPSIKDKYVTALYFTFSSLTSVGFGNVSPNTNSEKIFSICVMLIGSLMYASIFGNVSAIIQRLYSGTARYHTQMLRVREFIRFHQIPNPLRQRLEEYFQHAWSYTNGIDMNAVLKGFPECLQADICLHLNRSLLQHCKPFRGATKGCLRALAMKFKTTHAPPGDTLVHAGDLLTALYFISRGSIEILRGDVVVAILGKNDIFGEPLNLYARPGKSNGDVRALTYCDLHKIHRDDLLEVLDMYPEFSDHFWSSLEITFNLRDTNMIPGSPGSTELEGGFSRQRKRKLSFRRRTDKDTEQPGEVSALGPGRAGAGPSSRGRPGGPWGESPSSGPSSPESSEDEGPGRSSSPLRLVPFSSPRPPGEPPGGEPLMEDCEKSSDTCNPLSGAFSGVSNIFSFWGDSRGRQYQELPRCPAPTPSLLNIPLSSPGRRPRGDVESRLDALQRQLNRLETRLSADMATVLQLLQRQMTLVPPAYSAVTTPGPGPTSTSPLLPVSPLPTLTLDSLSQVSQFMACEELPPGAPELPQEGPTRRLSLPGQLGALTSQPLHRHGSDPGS
Summary of the method: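 Whole-cell voltage-clamp recordings of IKhERG in CHO cells stably expressing human hERG, stimulated at 0.1 Hz. Compound applied at rising concentrations, each held 3–10 min to reach steady state; current amplitude and kinetics compared with pre-drug control set as 100%.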

[1] = tested on: Balb/c 3T3 mouse fibroblasts; assay: 3T3 in vitro phototoxicity assay (Neutral Red uptake); assay type: cell-based; conditions: for Phototoxicity factor: Factor=IC50(-UV)/IC50(+UV), cut-off >5; for IC50: Mus musculus, BALB/c3T3, light or radiation study, with approx. 5 J/cm2 UVA light, Neutral Red uptake
Text: 3T3 In Vitro Phototoxicity Assay
Phototoxicity is defined as a toxic response that is elicited after the first exposure of the skin to certain chemicals and subsequent exposure to light, or that is induced similarly by skin irradiation after systemic administration of a chemical substance. The assay used in this study is designed to detect the phototoxic potential of a chemical by using a simple in vitro cytotoxicity assay with Balb/c 3T3 mouse fibroblasts. The principle of this test is a comparison of the cytotoxicity of a chemical when tested with and without exposure to a non-toxic dose of UVA-light. Cytotoxicity is expressed as a dose dependent reduction of the growth rate of cells as determined by uptake of the vital dye Neutral Red one day after treatment.
A small amount of substance was weighed and formulated freshly in DMSO just before the start of the exposure of the cells. This stock solution or appropriate dilutions with DMSO were added to the cell suspensions to obtain the required final concentrations. All solutions were generally prepared in Eppendorf caps and discarded after use.
Chlorpromazine (HCL) (Sigma, Batch/Lot No.: 120M1328V), test concentration: 300 μg/mL, Solvent: PBS/3% DMSO
For this study the Neutral Red uptake (NRU) assay of Borenfreund and Puemer (Borenfreund, E, Puemer J A. Toxicity determined in vitro by morphological alterations and Neutral Red absorption. Toxicology Lett. 1985; 24:119-124) modified according to INVITTOX protocol No 78 (ERGATT/FRAME data bank of in vitro techniques in toxicology. INVITTOX PROTOCOL No 78. 3T3 NRU Phototoxicity Assay. March 1994) has been adapted to examine a possible phototoxic potential of the test item. This assay is based on the active uptake of the Neutral Red dye into the lysosomes of cultured murine fibroblasts. Because lysosomal membranes are known to be a site of action of many phototoxic compounds, this assay can provide a measure of potential for phototoxic injury.
A murine fibroblasts clone A 31 (ATCC no. CCL 163—passage No. 108) were cultured in 175 cm^2 tissue culture grade flasks, containing sDMEM (Dulbecco's […] Essential Medium, supplemented with 10% fetal calf serum, 2 mM L-glutamine, 100 units/ml Penicillin and 100 μg/ml streptomycin) at 37° C. in a humidified atmosphere of 6% CO2. Before cells approach confluence they were removed from flasks by trypsinisation. Prior to use in an assay, the cells were transferred to 96-well microtiter plates at a concentration of 1×10^4 cells/well in 100 μl volumes of sDMEM and allowed to attach for 24 h.
For incubation with murine fibroblasts, the test item was diluted in PBS/3% DMSO (detailed concentrations see in results).
Culture medium (Dulbecco's Modified Eagle Medium (DMEM), GlutaMAX (Gibco Ref 21885-025), 10% Fetal Bovine Serum (FBS) (Gibco Ref 10270-106), 100 IU/ml Penicillin and 100 μg/ml Streptomycin (Gibco Ref 15140-122)) was removed from the wells and murine fibroblasts were washed with PBS. Afterwards 100 μL of PBS/3% DMSO containing the test item was added and target cells were incubated for 1 h at 37° C. with 6% CO2.
For each test item the microtiter plates were prepared according to Table 4. “UVA plates” were exposed to approx. 5 J/cm^2 UVA light, the “Dark plates” were kept in the dark and served as cytotoxicity control. Plates with chlorpromazine hydrochloride served as positive control. UV flux was measured with a UV-meter (Dr. Gröbel RM21).
Following UV irradiation, the test item was removed from the wells (one washing step with PBS) and replaced with sDMEM. Target cells were then incubated overnight at 37° C. in 6% CO2.
Each plate contained wells with cells and solvent but without test item which were either not incubated with Neutral Red solution (0% standard—S1) or were stained with Neutral Red (100% standard—S2) for calculation of the standard cell viability curve. Wells labeled with U01-U08 contained the different test item concentrations. […]

| Structure (SMILES) | IC50 (hERG channel) [µM] | IC20 (hERG channel) [µM] | hERG IC20/TLR7 IC50 (hERG channel) | hERG IC20/TLR8 IC50 (hERG channel) | hERG IC20/TLR9 IC50 (hERG channel) | Phototoxicity factor [1] | IC50 [1] [µg/mL] |
| --- | --- | --- | --- | --- | --- | --- | --- |
| [2H]c1ccc2c(N3C[C@@H]4CN(CCc5ccc(N6C[C@H]7NCCO[C@@H]7C6)nc5)CCN4[C@H](C)C3)ccc(C#N)c2n1 [Example 77, 5-[(4R,9aS)-8-[2-[6-[(4aR,7aR)-3,4,4a,5,7,7a-hexahydro-2H-pyrrolo[3,4-b][1,4]oxazin-6-yl]-3-pyridyl]ethyl]-4-methyl-3,4,6,7,9,9a-hexahydro-1H-pyrazino[1,2-a]pyrazin-2-yl]-2-deuterio-quinoline-8-carbonitrile] | > 20 | > 10 | >476 | >416 | >227 | >1.9 | 52.5 (≈ 97.3 µM) |
| [2H]c1ccc2c(N3C[C@@H]4CN(c5ccc([C@@H]6CNCCO6)cc5)CCN4[C@@H](C)C3)ccc(C#N)c2n1 [Example 106, 5-[(4S,9aS)-4-methyl-8-[4-[(2R)-morpholin-2-yl]phenyl]-3,4,6,7,9,9a-hexahydro-1H-pyrazino[1,2-a]pyrazin-2-yl]-2-deuterio-quinoline-8-carbonitrile] | > 20 | > 10 | >5000 | >2500 | >78 | >1.67 | 60.2 (≈ 128 µM) |
